Experimental data from patent US7183267B2, “β-lactamase inhibitors and methods of use thereof” (priority 2003, dated 2007).
Values after ≈ are worked out from the molar mass of the structure shown.

Experiments:
[1] = system: methicillin sensitive S. aureus ATCC 25923 (MSSA); assay: MIC assay, broth microdilution, MSSA; format: cell-based; conditions: Staphylococcus aureus, 24 h
Experimental: (3) methicillin sensitive S. aureus ATCC 25923 (MSSA). This strain was obtained from ATCC and was used as a control.
The strains were processed according to procedures recommended by ATCC, or procedures that are routinely used. Single colonies of each organism were picked for purification to generate pure working cultures. Prior to each experiment each strain was subcultured on a fresh Mueller-Hinton agar plate (MHA).
Inocula for the MIC assays were prepared by transferring a tiny portion of one colony from a MHA plate to 2 ml of Mueller-Hinton broth (MHB) such that the estimated cell density was about 10^7 colony forming unit (CFU)/ml. This cell suspension was then further diluted 10-fold (to 10^6 CFU/ml) by transferring the 2 ml cell suspension to 18 ml of MHB. Addition of 50 μl of this dilute cell suspension to 50 μl of growth medium yielded the desired cell density, namely about 5×10^4 CFU/well, or 5×10^5 CFU/ml.
The MIC value of oxacillin was determined using the broth microdilution procedure recommended by the National Committee of Clinical Laboratory Standards (NCCLS, 2000).
The MIC experiments were performed in duplicate in 96-well microtiter plates using MHB. A stock solution of 2.6 mg/0.5 ml was prepared in dimethylsulfoxide (DMSO). A total of 8 two-fold serial dilutions were made with DMSO. Initial oxacillin doses used were (μg/ml): 64, 32, 16, 8, 4, 2, 1, and 0.5. Doses were adjusted in the confirmatory experiment, if needed, in order to establish an actual MIC value.
(§1) To each well of a 96 well microtiter plate was added 47.5 μl of MHB. A volume of 2.5 μl of each dilution of oxacillin was then transferred to appropriate wells containing the medium. All wells, except the sterility control wells, were then inoculated with 50 μl of a diluted cell suspension to give a final volume of 100 μl and a final cell density of 5×10^4 CFU/well. The volume in the sterility control wells was adjusted to 100 μl with MHB. A sterile pipette tip was used to mix the contents of each well (one tip was used going from the low to the high concentration in the same column). The microtiter plates were covered with the lids and were placed in large Stratagene Big Blue plates (Cat. # 400041). Four large kimwipes moistened with tap water were placed near the edges of the Stratagene plates to prevent evaporation of the medium. The microtiter plates were incubated for at least 24 hours at 35° C. The plates were then evaluated for growth in each well. Controls included: medium sterility and negative control (medium and bacteria only).
The procedure used to determine the antimicrobial activity of the compounds of the present invention was identical to the broth microdilution procedure described above with the exception of the preparation of the stock solutions. Stock solution at concentration of 40.96 mg/0.5 ml was prepared in DMSO for each of the compounds. A total of 8 two-fold dilutions were then made in DMSO. A volume of 2.5 μl of each dilution was delivered to appropriate wells. The initial doses used were (μg/ml): 512, 256, 128, 64, 32, 16, 8, and 4.
(§2) A numerical code was used to evaluate the extent of growth as indicated below. • 0: absence of growth • 1: barely visible (faint) growth • 2: fair growth but less than the negative solvent control • 3: growth is equivalent to the negative solvent control.
(§3) The lowest dose at which no visible growth is observed was determined to be the MIC value.
MIC assays were performed with oxacillin and the four compounds. Each of the compounds was tested at the following 8 doses (μg/ml): 512, 256, 128, 64, 32, 16, 8, and 4. Oxacillin was tested at the following 8 doses (μg/ml): 64, 32, 16, 8, 4, 2, 1, and 0.5.

[2] = system: methicillin resistant S. aureus ATCC 33591 (MRSA-ATCC); assay: Matrix system: oxacillin plus β-lactamase inhibitor, MRSA-ATCC; format: cell-based; conditions: for MIC of oxacillin: matrix study
Experimental: as §1, §2, §3
The effect of the four compounds of the present invention on oxacillin resistance of the MRSA strains was determined using a matrix system. The β-lactamase inhibitors were tested at 5 doses against up to eleven concentrations of oxacillin. […] A 96-well microtiter plate was used for the matrix system. The procedure was identical to that described above for the MIC determination, with the exception that both oxacillin and one each of the β-lactamase inhibitors was added, 2.5 μl each, to the wells prior to addition of the test organisms.
Matrix Study:Oxacillin and Compound FL201 with MRSA-ATCC
Matrix Study: Oxacillin and Compound Fl202 with MRSA-ATCC

COC(=O)c1cc(B(O)O)cc([N+](=O)[O-])c1 [Compound F1202]
MIC [1]: 128 µg/mL (≈ 569 µM) | MIC of oxacillin ([2]; with compound 1 μg/ml): 32 µg/mL | MIC of oxacillin ([2]; with compound 2 μg/ml): 16 µg/mL | MIC of oxacillin ([2]; with compound 4 μg/ml): 1 µg/mL | MIC of oxacillin ([2]; with compound 8 μg/ml): 0.125 µg/mL | MIC of oxacillin ([2]; with compound 16 μg/ml): <0.064 µg/mL | extent of growth (numerical code) ([2]; oxacillin 0 μg/ml + compound 1 μg/ml): 3 | extent of growth (numerical code) ([2]; oxacillin 0 μg/ml + compound 2 μg/ml): 2 | extent of growth (numerical code) ([2]; oxacillin 0 μg/ml + compound 4 μg/ml): 2 | extent of growth (numerical code) ([2]; oxacillin 0 μg/ml + compound 8 μg/ml): 1 | extent of growth (numerical code) ([2]; oxacillin 0 μg/ml + compound 16 μg/ml): 1 | extent of growth (numerical code) ([2]; oxacillin 0.064 μg/ml + compound 1 μg/ml): 3 | extent of growth (numerical code) ([2]; oxacillin 0.064 μg/ml + compound 2 μg/ml): 3 | extent of growth (numerical code) ([2]; oxacillin 0.064 μg/ml + compound 4 μg/ml): 2 | extent of growth (numerical code) ([2]; oxacillin 0.064 μg/ml + compound 8 μg/ml): 1 | extent of growth (numerical code) ([2]; oxacillin 0.064 μg/ml + compound 16 μg/ml): 0 | extent of growth (numerical code) ([2]; oxacillin 0.125 μg/ml + compound 1 μg/ml): 3 | extent of growth (numerical code) ([2]; oxacillin 0.125 μg/ml + compound 2 μg/ml): 3 | extent of growth (numerical code) ([2]; oxacillin 0.125 μg/ml + compound 4 μg/ml): 2 | extent of growth (numerical code) ([2]; oxacillin 0.125 μg/ml + compound 8 μg/ml): 0 | extent of growth (numerical code) ([2]; oxacillin 0.125 μg/ml + compound 16 μg/ml): 0 | extent of growth (numerical code) ([2]; oxacillin 0.25 μg/ml + compound 1 μg/ml): 3 | extent of growth (numerical code) ([2]; oxacillin 0.25 μg/ml + compound 2 μg/ml): 2 | extent of growth (numerical code) ([2]; oxacillin 0.25 μg/ml + compound 4 μg/ml): 1 | extent of growth (numerical code) ([2]; oxacillin 0.25 μg/ml + compound 8 μg/ml): 0 | extent of growth (numerical code) ([2]; oxacillin 0.25 μg/ml + compound 16 μg/ml): 0 | extent of growth (numerical code) ([2]; oxacillin 0.5 μg/ml + compound 1 μg/ml): 3 | extent of growth (numerical code) ([2]; oxacillin 0.5 μg/ml + compound 2 μg/ml): 2 | extent of growth (numerical code) ([2]; oxacillin 0.5 μg/ml + compound 4 μg/ml): 1 | extent of growth (numerical code) ([2]; oxacillin 0.5 μg/ml + compound 8 μg/ml): 0 | extent of growth (numerical code) ([2]; oxacillin 0.5 μg/ml + compound 16 μg/ml): 0 | extent of growth (numerical code) ([2]; oxacillin 1 μg/ml + compound 1 μg/ml): 3 | extent of growth (numerical code) ([2]; oxacillin 1 μg/ml + compound 2 μg/ml): 2 | extent of growth (numerical code) ([2]; oxacillin 1 μg/ml + compound 4 μg/ml): 0 | extent of growth (numerical code) ([2]; oxacillin 1 μg/ml + compound 8 μg/ml): 0 | extent of growth (numerical code) ([2]; oxacillin 1 μg/ml + compound 16 μg/ml): 0 | extent of growth (numerical code) ([2]; oxacillin 2 μg/ml + compound 1 μg/ml): 2 | extent of growth (numerical code) ([2]; oxacillin 2 μg/ml + compound 2 μg/ml): 2 | extent of growth (numerical code) ([2]; oxacillin 2 μg/ml + compound 4 μg/ml): 0 | extent of growth (numerical code) ([2]; oxacillin 2 μg/ml + compound 8 μg/ml): 0 | extent of growth (numerical code) ([2]; oxacillin 2 μg/ml + compound 16 μg/ml): 0 | extent of growth (numerical code) ([2]; oxacillin 4 μg/ml + compound 1 μg/ml): 2 | extent of growth (numerical code) ([2]; oxacillin 4 μg/ml + compound 2 μg/ml): 2 | extent of growth (numerical code) ([2]; oxacillin 4 μg/ml + compound 4 μg/ml): 0 | extent of growth (numerical code) ([2]; oxacillin 4 μg/ml + compound 8 μg/ml): 0 | extent of growth (numerical code) ([2]; oxacillin 4 μg/ml + compound 16 μg/ml): 0 | extent of growth (numerical code) ([2]; oxacillin 8 μg/ml + compound 1 μg/ml): 2 | extent of growth (numerical code) ([2]; oxacillin 8 μg/ml + compound 2 μg/ml): 1 | extent of growth (numerical code) ([2]; oxacillin 8 μg/ml + compound 4 μg/ml): 0 | extent of growth (numerical code) ([2]; oxacillin 8 μg/ml + compound 8 μg/ml): 0 | extent of growth (numerical code) ([2]; oxacillin 8 μg/ml + compound 16 μg/ml): 0 | extent of growth (numerical code) ([2]; oxacillin 16 μg/ml + compound 1 μg/ml): 2 | extent of growth (numerical code) ([2]; oxacillin 16 μg/ml + compound 2 μg/ml): 0 | extent of growth (numerical code) ([2]; oxacillin 16 μg/ml + compound 4 μg/ml): 0 | extent of growth (numerical code) ([2]; oxacillin 16 μg/ml + compound 8 μg/ml): 0 | extent of growth (numerical code) ([2]; oxacillin 16 μg/ml + compound 16 μg/ml): 0 | extent of growth (numerical code) ([2]; oxacillin 32 μg/ml + compound 1 μg/ml): 0 | extent of growth (numerical code) ([2]; oxacillin 32 μg/ml + compound 2 μg/ml): 0 | extent of growth (numerical code) ([2]; oxacillin 32 μg/ml + compound 4 μg/ml): 0 | extent of growth (numerical code) ([2]; oxacillin 32 μg/ml + compound 8 μg/ml): 0 | extent of growth (numerical code) ([2]; oxacillin 32 μg/ml + compound 16 μg/ml): 0 | extent of growth (numerical code) ([2]; oxacillin 64 μg/ml + compound 1 μg/ml): 0 | extent of growth (numerical code) ([2]; oxacillin 64 μg/ml + compound 2 μg/ml): 0 | extent of growth (numerical code) ([2]; oxacillin 64 μg/ml + compound 4 μg/ml): 0 | extent of growth (numerical code) ([2]; oxacillin 64 μg/ml + compound 8 μg/ml): 0 | extent of growth (numerical code) ([2]; oxacillin 64 μg/ml + compound 16 μg/ml): 0
